Experimental data published in PubChem BioAssay AID212 (DTP/NCI, 2004).
Values joined by “and” are separate entries in the source; they are usually repeats but may differ in a detail not shown here. Equal entries are not always repeated. Records with an inconclusive call do not appear.

Test system: BDF1 mice, colon carcinoma 38 sc, T/C %
Test: NCI In Vivo Anticancer Drug Screen. Data for tumor model Colon Carcinoma 38 (subcutaneous) in B6D2F1 (BDF1) mice
Outline: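 T/C readout: treated group (T) measurement over vehicle control group (C) measurement. Endpoint is survival or tumor size in mice bearing a transplanted tumor.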

COc1cccc2c1C(=O)c1c(O)c3c(c(O)c1C2=O)C[C@@](O)(C(=O)CO)C[C@@H]3OC1CC(N)C(O)C(C)O1 (stereo partly specified)
T/C (endpoint: median survival time, dose: 2.7 mg/kg/injection, schedule: Q07DX003 (iv), vehicle: saline, higher = longer survival): 104 % of control
T/C (endpoint: median survival time, dose: 3.3 mg/kg/injection, schedule: Q07DX002 (iv), vehicle: saline, higher = longer survival): 112 % of control and 108 % of control
T/C (endpoint: median survival time, dose: 3.3 mg/kg/injection, schedule: Q07DX004 (iv), vehicle: saline, higher = longer survival): 118 % of control
T/C (endpoint: median survival time, dose: 4.1 mg/kg/injection, schedule: Q07DX003 (iv), vehicle: saline, higher = longer survival): 100 % of control
T/C (endpoint: median survival time, dose: 4.5 mg/kg/injection, schedule: Q07DX002 (sc), vehicle: saline, higher = longer survival): 79 % of control
T/C (endpoint: median survival time, dose: 5.2 mg/kg/injection, schedule: Q07DX002 (iv), vehicle: saline, higher = longer survival): 174 % of control
T/C (endpoint: median survival time, dose: 5.4 mg/kg/injection, schedule: Q07DX002 (iv), vehicle: saline, higher = longer survival): 109 % of control and 124 % of control
T/C (endpoint: median survival time, dose: 5.4 mg/kg/injection, schedule: Q07DX004 (iv), vehicle: saline, higher = longer survival): 155 % of control
T/C (endpoint: median survival time, dose: 6.0 mg/kg/injection, schedule: Q07DX003 (iv), vehicle: saline, higher = longer survival): 157 % of control
T/C (endpoint: median survival time, dose: 7.3 mg/kg/injection, schedule: Q07DX002 (sc), vehicle: saline, higher = longer survival): 104 % of control
T/C (endpoint: median survival time, dose: 8.5 mg/kg/injection, schedule: Q07DX002 (sc), vehicle: saline, higher = longer survival): 166 % of control
T/C (endpoint: median survival time, dose: 8.7 mg/kg/injection, schedule: Q07DX002 (iv), vehicle: saline, higher = longer survival): 124 % of control
T/C (endpoint: median survival time, dose: 8.7 mg/kg/injection, schedule: Q07DX004 (iv), vehicle: saline, higher = longer survival): 184 % of control
T/C (endpoint: median survival time, dose: 9.0 mg/kg/injection, schedule: Q07DX003 (iv), vehicle: saline, higher = longer survival): 168 % of control
T/C (endpoint: median survival time, dose: 9.0 mg/kg/injection, schedule: Q07DX003 (sc), vehicle: saline, higher = longer survival): 164 % of control
T/C (endpoint: median survival time, dose: 12.0 mg/kg/injection, schedule: Q07DX002 (sc), vehicle: saline, higher = longer survival): 113 % of control
T/C (endpoint: median survival time, dose: 13.5 mg/kg/injection, schedule: Q07DX003 (sc), vehicle: saline, higher = longer survival): 166 % of control
T/C (endpoint: median survival time, dose: 15.5 mg/kg/injection, schedule: Q07DX003 (iv), vehicle: saline, higher = longer survival): 152 % of control
T/C (endpoint: median tumor weight (est.), dose: 0.18 mg/kg/injection, schedule: Q07DX002 (ip), vehicle: water, higher = larger tumour): 67 % of control
T/C (endpoint: median tumor weight (est.), dose: 0.37 mg/kg/injection, schedule: Q07DX002 (ip), vehicle: water, higher = larger tumour): 102 % of control
T/C (endpoint: median tumor weight (est.), dose: 0.5 mg/kg/injection, schedule: Q07DX002 (ip), vehicle: water, higher = larger tumour): 108 % of control
T/C (endpoint: median tumor weight (est.), dose: 0.5 mg/kg/injection, schedule: Q07DX003 (ip), vehicle: saline, higher = larger tumour): 101 % of control
T/C (endpoint: median tumor weight (est.), dose: 1.0 mg/kg/injection, schedule: Q07DX003 (ip), vehicle: saline, higher = larger tumour): 101 % of control
T/C (endpoint: median tumor weight (est.), dose: 1.25 mg/kg/injection, schedule: Q07DX002 (ip), vehicle: water, higher = larger tumour): 90 % of control
T/C (endpoint: median tumor weight (est.), dose: 2.0 mg/kg/injection, schedule: Q07DX003 (ip), vehicle: saline, higher = larger tumour): 191 % of control
T/C (endpoint: median tumor weight (est.), dose: 2.5 mg/kg/injection, schedule: Q07DX002 (ip), vehicle: saline, higher = larger tumour): 90 % of control
T/C (endpoint: median tumor weight (est.), dose: 2.5 mg/kg/injection, schedule: Q07DX002 (ip), vehicle: water, higher = larger tumour): 50 % of control
T/C (endpoint: median tumor weight (est.), dose: 3.0 mg/kg/injection, schedule: Q07DX002 (ip), vehicle: saline, higher = larger tumour): 106 % of control and 110 % of control
T/C (endpoint: median tumor weight (est.), dose: 3.0 mg/kg/injection, schedule: Q07DX003 (iv), vehicle: saline, higher = larger tumour): 82 % of control and 83 % of control
T/C (endpoint: median tumor weight (est.), dose: 4.0 mg/kg/injection, schedule: Q07DX003 (ip), vehicle: saline, higher = larger tumour): 85 % of control
T/C (endpoint: median tumor weight (est.), dose: 4.75 mg/kg/injection, schedule: Q07DX002 (ip), vehicle: water, higher = larger tumour): 68 % of control
T/C (endpoint: median tumor weight (est.), dose: 5.0 mg/kg/injection, schedule: Q07DX002 (ip), vehicle: saline, higher = larger tumour): 70 % of control
T/C (endpoint: median tumor weight (est.), dose: 5.0 mg/kg/injection, schedule: Q07DX002 (ip), vehicle: water, higher = larger tumour): 25 % of control
T/C (endpoint: median tumor weight (est.), dose: 6.33 mg/kg/injection, schedule: Q07DX002 (ip), vehicle: water, higher = larger tumour): 14 % of control
T/C (endpoint: median tumor weight (est.), dose: 8.0 mg/kg/injection, schedule: Q07DX003 (ip), vehicle: saline, higher = larger tumour): 91 % of control
T/C (endpoint: median tumor weight (est.), dose: 8.44 mg/kg/injection, schedule: Q07DX002 (ip), vehicle: water, higher = larger tumour): 53 % of control
T/C (endpoint: median tumor weight (est.), dose: 9.0 mg/kg/injection, schedule: Q07DX002 (ip), vehicle: water, higher = larger tumour): 56 % of control
T/C (endpoint: median tumor weight (est.), dose: 11.25 mg/kg/injection, schedule: Q07DX002 (ip), vehicle: water, higher = larger tumour): 21 % of control
T/C (endpoint: median tumor weight (est.), dose: 12.0 mg/kg/injection, schedule: Q07DX002 (ip), vehicle: saline, higher = larger tumour): 53 % of control
T/C (endpoint: median tumor weight (est.), dose: 12.0 mg/kg/injection, schedule: Q07DX003 (iv), vehicle: saline, higher = larger tumour): 26 % of control
T/C (endpoint: median tumor weight (est.), dose: 15.0 mg/kg/injection, schedule: Q07DX002 (ip), vehicle: water, higher = larger tumour): 6 % of control
T/C (endpoint: median tumor weight (est.), dose: 16.0 mg/kg/injection, schedule: Q07DX003 (ip), vehicle: saline, higher = larger tumour): 103 % of control
T/C (endpoint: median tumor weight (est.), dose: 24.0 mg/kg/injection, schedule: Q07DX003 (iv), vehicle: saline, higher = larger tumour): 12 % of control

CCCCCC#CC1OC12CCCCC2 (stereo unspecified)
T/C (endpoint: median tumor weight (est.), dose: 6.25 mg/kg/injection, schedule: Q07DX002 (ip), vehicle: saline, higher = larger tumour): 17 % of control
T/C (endpoint: median tumor weight (est.), dose: 12.5 mg/kg/injection, schedule: Q07DX002 (ip), vehicle: saline with Tween-80, higher = larger tumour): 88 % of control
T/C (endpoint: median tumor weight (est.), dose: 25.0 mg/kg/injection, schedule: Q07DX002 (ip), vehicle: saline with Tween-80, higher = larger tumour): 122 % of control
T/C (endpoint: median tumor weight (est.), dose: 25.0 mg/kg/injection, schedule: Q07DX002 (ip), vehicle: saline, higher = larger tumour): 64 % of control and 66 % of control
T/C (endpoint: median tumor weight (est.), dose: 50.0 mg/kg/injection, schedule: Q07DX002 (ip), vehicle: saline with Tween-80, higher = larger tumour): 91 % of control
T/C (endpoint: median tumor weight (est.), dose: 50.0 mg/kg/injection, schedule: Q07DX002 (ip), vehicle: saline, higher = larger tumour): 24 % of control
T/C (endpoint: median tumor weight (est.), dose: 100.0 mg/kg/injection, schedule: Q07DX002 (ip), vehicle: saline with Tween-80, higher = larger tumour): 169 % of control
T/C (endpoint: median tumor weight (est.), dose: 200.0 mg/kg/injection, schedule: Q07DX002 (ip), vehicle: saline with Tween-80, higher = larger tumour): 103 % of control
T/C (endpoint: median tumor weight (est.), dose: 200.0 mg/kg/injection, schedule: Q07DX002 (ip), vehicle: saline, higher = larger tumour): 38 % of control and 41 % of control

O=C(NO)c1ccc(O)c(O)c1
T/C (endpoint: median tumor weight (est.), dose: 50.0 mg/kg/injection, schedule: Q07DX002 (ip), vehicle: water, higher = larger tumour): 88 % of control
T/C (endpoint: median tumor weight (est.), dose: 100.0 mg/kg/injection, schedule: Q07DX002 (ip), vehicle: water, higher = larger tumour): 92 % of control
T/C (endpoint: median tumor weight (est.), dose: 200.0 mg/kg/injection, schedule: Q07DX002 (ip), vehicle: water, higher = larger tumour): 85 % of control
T/C (endpoint: median tumor weight (est.), dose: 400.0 mg/kg/injection, schedule: Q07DX002 (ip), vehicle: water, higher = larger tumour): 48 % of control

ClCCCN1CCN(CCCCl)CC1
T/C (endpoint: median tumor weight (est.), dose: 12.5 mg/kg/injection, schedule: Q07DX002 (ip), vehicle: distilled water + alcohol, higher = larger tumour): 94 % of control
T/C (endpoint: median tumor weight (est.), dose: 25.0 mg/kg/injection, schedule: Q07DX002 (ip), vehicle: distilled water + alcohol, higher = larger tumour): 154 % of control
T/C (endpoint: median tumor weight (est.), dose: 50.0 mg/kg/injection, schedule: Q07DX002 (ip), vehicle: distilled water + alcohol, higher = larger tumour): 153 % of control and 207 % of control
T/C (endpoint: median tumor weight (est.), dose: 100.0 mg/kg/injection, schedule: Q07DX002 (ip), vehicle: distilled water + alcohol, higher = larger tumour): 39 % of control and 50 % of control
T/C (endpoint: median tumor weight (est.), dose: 200.0 mg/kg/injection, schedule: Q07DX002 (ip), vehicle: distilled water + alcohol, higher = larger tumour): 63 % of control
